Experimental data as given in US9102678B2, “Compounds and methods for inhibiting mitotic progression” (Millennium Pharmaceuticals, Inc., priority 2004, dated 2015).

The molecules below were run against T1, recombinant murine Aurora A enzyme (Mus musculus, UniProt P97477) (assay: Aurora A DELFIA Kinase Assay). Details: mouse Aurora A, 250 μM ATP; threshold less than or equal to 100 nM; read-out: IC50.
T1 construct: hexahistidine (His6) (N); made in house; host or cells: insect cells, baculovirus (Bac-to-Bac, Invitrogen)
T1 sequence (P97477 whole entry): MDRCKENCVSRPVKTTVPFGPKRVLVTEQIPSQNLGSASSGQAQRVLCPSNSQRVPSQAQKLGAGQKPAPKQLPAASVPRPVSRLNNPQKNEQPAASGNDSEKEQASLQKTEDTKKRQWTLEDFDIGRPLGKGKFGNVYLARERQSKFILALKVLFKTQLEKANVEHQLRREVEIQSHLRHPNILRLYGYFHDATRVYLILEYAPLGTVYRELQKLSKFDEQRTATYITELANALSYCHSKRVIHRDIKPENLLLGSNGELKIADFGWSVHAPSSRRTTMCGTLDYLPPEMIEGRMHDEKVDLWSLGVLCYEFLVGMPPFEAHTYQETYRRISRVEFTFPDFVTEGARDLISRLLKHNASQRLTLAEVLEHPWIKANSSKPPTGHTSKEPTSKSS
Type: biochemical
From the text: Recombinant mouse Aurora A with an amino-terminus hexahistidine tag (His-Aurora A) was expressed using a standard baculovirus vector and insect cell expression system (Bac-to-Bac®, Invitrogen).
Soluble, recombinant mouse Aurora A was purified from insect cells using Ni-NTA agarose (Qiagen) as described by the manufacturer and further purified over an S75 size exclusion column (Amersham Pharmacia Biotech).
Aurora A DELFIA® Kinase Assay
The enzymatic reaction mixture, with and without Aurora inhibitors, was incubated for 15 minutes at room temperature before termination with 100 μL of stop buffer (1% BSA, 0.05% Surfact-AMPS-20, and 100 mM EDTA). A total of 100 μL of the enzyme reaction mixture was transferred to wells of a Neutravidin-coated 96-well plate (Pierce) and incubated at room temperature for 30 minutes. The wells were washed with wash buffer (25 mM Tris, 150 mM sodium chloride, and 0.1% Tween 20) and incubated for 1 hour with 100 μL of antibody reaction mixture containing 1% BSA, 0.05% Surfact-AMPS-20, anti-phospho-PKA rabbit polyclonal antibody (1:2000, New England Biolabs), and europium labeled anti-rabbit IgG (1:2000, Perkin Elmer). The wells were washed and then the bound europium was liberated using 100 μL of Enhancement Solution (Perkin Elmer). Quantification of europium was done using a Wallac™ EnVision (Perkin Elmer).

IC50, ≤ 100 nM:
O=C(NCCN1CCOCC1)c1ccc(Nc2ncc3c(n2)-c2ccc(Cl)cc2C(c2ccccc2Cl)=NC3)cc1 [Compound I-30, 4-[9-Chloro-7-(2-chloro-phenyl)-5H-benzo[c]pyrimido[4,5-e]azepin-2-ylamino]-N-(2-morpholin-4-yl-ethyl)-benzamide]
Cc1ccccc1C1=NCc2cnc(Nc3ccc(C(=O)NCCN4CCOCC4)cc3)nc2-c2ccc(Cl)cc21 [Compound I-31, 4-(9-Chloro-7-o-tolyl-5H-benzo[c]pyrimido[4,5-e]azepin-2-ylamino)-N-(2-morpholin-4-yl-ethyl)-benzamide]
COc1ccccc1C1=NCc2cnc(Nc3ccc(C(=O)NCCCN4CCOCC4)cc3)nc2-c2ccc(Cl)cc21 [Compound I-32, 4-[9-Chloro-7-(2-methoxy-phenyl)-5H-benzo[c]pyrimido[4,5-e]azepin-2-ylamino]-N-(3-morpholin-4-yl-propyl)-benzamide]
O=C(O)c1ccc(Nc2ncc3c(n2)-c2ccc(Cl)cc2C(c2ccccc2F)=NC3)cc1 [Compound I-52, 4-[9-Chloro-7-(2-fluoro-phenyl)-5H-benzo[c]pyrimido[4,5-e]azepin-2-ylamino]-benzoic acid]
O=C(O)c1ccc(Nc2ncc3c(n2)-c2ccc(Cl)cc2C(c2ccccc2Cl)=NC3)cc1 [Compound I-53, 4-[9-Chloro-7-(2-chloro-phenyl)-5H-benzo[c]pyrimido[4,5-e]azepin-2-ylamino]-benzoic acid]
Cc1ccccc1C1=NCc2cnc(Nc3ccc(C(=O)O)cc3)nc2-c2ccc(Cl)cc21 [Compound I-54, 4-(9-Chloro-7-o-tolyl-5H-benzo[c]pyrimido[4,5-e]azepin-2-ylamino) -benzoic acid]
COc1ccccc1C1=NCc2cnc(Nc3ccc(C(=O)O)cc3)nc2-c2ccc(Cl)cc21 [Compound I-55, 4-[9-Chloro-7-(2-methoxy-phenyl)-5H-benzo[c]pyrimido[4,5-e]azepin-2-ylamino]-benzoic acid]
O=C(O)c1ccc(Nc2ncc3c(n2)-c2ccc(F)cc2C(c2ccccc2F)=NC3)cc1 [Compound I-57, 4-[9-Fluoro-7-(2-fluoro-phenyl)-5H-benzo[c]pyrimido[4,5-e]azepin-2-ylamino]-benzoic acid]
Cc1ccc2c(c1)C(c1ccccc1F)=NCc1cnc(Nc3ccc(C(=O)O)cc3)nc1-2 [Compound I-58, 4-[7-(2-Fluoro-phenyl)-9-methyl-5H-benzo[c]pyrimido[4,5-e]azepin-2-ylamino]-benzoic acid]
NC(=O)c1ccc(Nc2ncc3c(n2)-c2ccc(Cl)cc2C(c2ccccc2Cl)=NC3)cc1 [Compound I-63, 4-[9-Chloro-7-(2-chloro-phenyl)-5H-benzo[c]pyrimido[4,5-e]azepin-2-ylamino]-benzamide]
O=C(O)Cc1cccc(Nc2ncc3c(n2)-c2ccc(Cl)cc2C(c2ccccc2Cl)=NC3)c1 [Compound I-65, {3-[9-Chloro-7-(2-chloro-phenyl)-5H-benzo[c]pyrimido[4,5-e]azepin-2-ylamino]-phenyl}-acetic acid]
NC(=O)Cc1cccc(Nc2ncc3c(n2)-c2ccc(Cl)cc2C(c2ccccc2Cl)=NC3)c1 [Compound I-66, 2-{3-[9-Chloro-7-(2-chloro-phenyl)-5H-benzo[c]pyrimido[4,5-e]azepin-2-ylamino]-phenyl}-acetamide]
O=S(=O)(O)c1ccc(Nc2ncc3c(n2)-c2ccc(Cl)cc2C(c2ccccc2F)=NC3)cc1 [Compound I-67, 4-[9-Chloro-7-(2-fluoro-phenyl)-5H-benzo[c]pyrimido[4,5-e]azepin-2-ylamino]-benzenesulfonic acid]
Cc1cc(NS(=O)(=O)c2ccc(Nc3ncc4c(n3)-c3ccc(Cl)cc3C(c3ccccc3Cl)=NC4)cc2)no1 [Compound I-69, 4-[9-Chloro-7-(2-chloro-phenyl)-5H-benzo[c]pyrimido[4,5-e]azepin-2-ylamino]-N-(5-methyl-isoxazol-3-yl)-benzenesulfonamide]
COc1ccc(Nc2ncc3c(n2)-c2ccc(Cl)cc2C(c2ccccc2Cl)=NC3)cc1OC [Compound I-73, [9-Chloro-7-(2-chloro-phenyl)-5H-benzo[c]pyrimido[4,5-e]azepin-2-yl]-(3,4-dimethoxy-phenyl)-amine]
O=C(O)c1ccc(Nc2ncc3c(n2)-c2ccc(Cl)cc2C(c2ccccc2Cl)=NC3)cc1O [Compound I-86, 4-[9-Chloro-7-(2-chloro-phenyl)-5H-benzo[c]pyrimido[4,5-e]azepin-2-ylamino]-2-hydroxy-benzoic acid]
COc1ccc2c(c1)C(c1ccccc1F)=NCc1cnc(Nc3ccc(C(=O)N4CCC(N(C)C)C4)cc3)nc1-2 (centres unmarked) [Compound I-93, (3-Dimethylamino-pyrrolidin-1-yl)-{4-[7-(2-fluoro-phenyl)-9-methoxy-5H-benzo[c]pyrimido[4,5-e]azepin-2-ylamino]-phenyl}-methanone]
CN(C)C1CN(C(=O)c2ccc(Nc3ncc4c(n3)-c3ccc(Cl)cc3C(c3ccccc3F)=NC4)cc2)C1 [Compound I-98, {4-[9-Chloro-7-(2-fluoro-phenyl)-5H-benzo[c]pyrimido[4,5-e]azepin-2-ylamino]-phenyl}-(3-dimethylamino-azetidin-1-yl)-methanone]
CN1CCC(N(C)C(=O)c2ccc(Nc3ncc4c(n3)-c3ccc(Cl)cc3C(c3ccccc3F)=NC4)cc2)C1 (centres unmarked) [Compound I-99, 4-[9-Chloro-7-(2-fluoro-phenyl)-5H-benzo[c]pyrimido[4,5-e]azepin-2-ylamino]-N-methyl-N-(1-methyl-pyrrolidin-3-yl)-benzamide]
CN(C)C1CCN(C(=O)c2ccc(Nc3ncc4c(n3)-c3ccc(Cl)cc3C(c3ccccc3F)=NC4)cc2)C1 (centres unmarked) [Compound I-100, {4-[9-Chloro-7-(2-fluoro-phenyl)-5H-benzo[c]pyrimido[4,5-e]azepin-2-ylamino]-phenyl}-(3-dimethylamino-pyrrolidin-1-yl)-methanone]
CNC1CCN(C(=O)c2ccc(Nc3ncc4c(n3)-c3ccc(Cl)cc3C(c3ccccc3F)=NC4)cc2)C1 (centres unmarked) [Compound I-102, {4-[9-Chloro-7-(2-fluoro-phenyl)-5H-benzo[c]pyrimido[4,5-e]azepin-2-ylamino]-phenyl}-(3-methylamino-pyrrolidin-1-yl)-methanone]
NC1CCN(C(=O)c2ccc(Nc3ncc4c(n3)-c3ccc(Cl)cc3C(c3ccccc3F)=NC4)cc2)C1 (centres unmarked) [Compound I-103, (3-Amino-pyrrolidin-1-yl)-{4-[9-chloro-7-(2-fluoro-phenyl)-5H-benzo[c]pyrimido[4,5-e]azepin-2-ylamino]-phenyl}-methanone]
CC1CN(C(=O)c2ccc(Nc3ncc4c(n3)-c3ccc(Cl)cc3C(c3ccccc3F)=NC4)cc2)CC(C)N1 (centres unmarked) [Compound I-111, {4-[9-Chloro-7-(2-fluoro-phenyl)-5H-benzo[c]pyrimido[4,5-e]azepin-2-ylamino]-phenyl}-(3,5-dimethyl-piperazin-1-yl)-methanone]
